ChEMBL document CHEMBL3632480, “Optimization of an indazole series of selective estrogen receptor degraders: Tumor regression in a tamoxifen-resistant breast cancer xenograft” (Bioorg Med Chem Lett, 2015)

Columns and labels:
[1] = AUC in CD-1 mouse at 10 mg/kg, po; assay type: ADME, organism-based; conditions: in vivo
MCF7 [2] = assay: Decrease in estrogen receptor alpha level in human MCF7 cells after 4 hrs by in-cell western assay; assay type: functional, cell-based; conditions: MCF7, 4 h
MCF7 [3] = assay: Cytotoxicity against human MCF7 cells assessed as decrease in cell viability after 5 days by celltiterGlo assay; assay type: functional, cell-based; conditions: MCF7, 120 h
MCF7 [4] = assay: Decrease in estrogen receptor alpha level in human MCF7 cells after 4 hrs by in-cell western assay relative to fulvestrant; assay type: functional; conditions: MCF7, 4 h
MCF7 [5] = assay: Decrease in estrogen receptor alpha level in human MCF7 cells 2 to 10 uM after 4 hrs by in-cell western assay; assay type: functional; conditions: MCF7, 4 h
Rattus norvegicus = assay: Decrease in uterine wet weight of CD-IGS rat at 1 mg/kg, po qd followed 15 mins later administration of 0.1 mg/kg, po 17alpha-ethynylestradiol for 3 consecutive days; assay type: functional
[6] = Fraction unbound in CD-1 mouse plasma by equilibrium dialysis; assay type: ADME, cell-free

Structure (SMILES) | AUC [1] [ng·h/mL] | EC50 (MCF7 [2]) [nM] | IC50 (MCF7 [3]) [nM] | Emax (MCF7 [4]) [%] | Emax (MCF7 [5]) [%] | inhibition (INH) (Rattus norvegicus) [%] | fraction unbound [6]
Cc1cccnc1/C(=C(\c1ccc(/C=C/C(=O)O)cc1)c1ccc2[nH]nc(F)c2c1)C1CCC1 | 190 | 0.8 | 4.2 | 88 | – | – | –
CC/C(=C(/c1ccc(/C=C/C(=O)O)cc1)c1cc2cn[nH]c2cc1F)c1ccccc1 | – | 64 | 47 | – | 96 | – | –
N#Cc1cc(F)ccc1/C(=C(\c1ccc(/C=C/C(=O)O)cc1)c1ccc2[nH]nc(F)c2c1)C1CCC1 | 760 | 0.3 | 1.2 | 92 | – | 57 | 0.021
CS(=O)(=O)c1ccc(/C(=C(\c2ccc(/C=C/C(=O)O)cc2)c2ccc3[nH]nc(F)c3c2)C2CCC2)c(Cl)c1 | 140 | 0.9 | 2.3 | 91 | – | 29 | –
O=C(O)/C=C/c1ccc(/C(=C(\c2ncccc2Cl)C2CCC2)c2ccc3[nH]nc(F)c3c2)cc1 | 900 | 0.3 | 1.2 | 90 | – | 83 | 0.032
N#Cc1ccc(/C(=C(\c2ccc(/C=C/C(=O)O)cc2)c2ccc3[nH]nc(F)c3c2)C2CCC2)c(Cl)c1 | 7800 | 0.3 | 0.7 | 93 | – | 85 | 0.006
O=C(O)/C=C/c1ccc(/C(=C(\c2ncc(Cl)cc2Cl)C2CCC2)c2ccc3[nH]nc(F)c3c2)cc1 | 15600 | 0.8 | 3.5 | 91 | – | 80 | 0.011
CS(=O)(=O)c1cc(Cl)ccc1/C(=C(\c1ccc(/C=C/C(=O)O)cc1)c1ccc2[nH]nc(F)c2c1)C1CCC1 | 200 | 0.3 | 0.3 | 91 | – | 94 | 0.035
COc1ccc(/C(=C(\c2ccc(/C=C/C(=O)O)cc2)c2ccc3[nH]nc(F)c3c2)C2CCC2)c(Cl)c1 | 20500 | 0.8 | 2.4 | 93 | – | 90 | 0.001
CC/C(=C(/c1ccc(/C=C/C(=O)O)cc1)c1ccc2[nH]nc(C)c2c1)c1ccccc1 | – | 353 | > 1000 | – | 86 | – | –
CC/C(=C(/c1ccc(/C=C/C(=O)O)cc1)c1ccc2[nH]ncc2c1C#N)c1ccccc1 | 500 | 0.5 | 1.5 | 91 | – | – | –
N#Cc1cc(Cl)cnc1/C(=C(\c1ccc(/C=C/C(=O)O)cc1)c1ccc2[nH]nc(F)c2c1)C1CCC1 | 250 | 0.4 | 1.1 | 93 | – | – | –
CC/C(=C(/c1ccc(/C=C/C(=O)O)cc1)c1ccc2[nH]ncc2c1F)c1ccccc1 | 8200 | 0.9 | 3 | 89 | – | – | –
O=C(O)/C=C/c1ccc(/C(=C(\c2ccccc2Cl)C2CCC2)c2ccc3[nH]nc(F)c3c2)cc1 | 11100 | 0.4 | 1.1 | 90 | – | 82 | 0.003
CC/C(=C(/c1ccc(/C=C/C(=O)O)cc1)c1cnc2[nH]ncc2c1)c1ccccc1 | – | 116 | 302 | – | 93 | – | –
O=C(O)/C=C/c1ccc(/C(=C(\c2ccncc2Cl)C2CCC2)c2ccc3[nH]nc(F)c3c2)cc1 | 1800 | 0.3 | 0.8 | 90 | – | 74 | 0.012
COCC/C(=C(/c1ccc(/C=C/C(=O)O)cc1)c1ccc2[nH]ncc2c1)c1ccccc1 | – | 47 | 63 | 92 | – | – | –
CC/C(=C(/c1ccc(/C=C/C(=O)O)cc1)c1ccc2[nH]nc(F)c2c1)c1ccccc1 | 14000 | 1.1 | 5 | 90 | – | – | –

Structure (SMILES) | AUC [1] [ng·h/mL] | EC50 (MCF7 [2]) [nM] | IC50 (MCF7 [3]) [nM] | Emax (MCF7 [4]) [%] | Emax (MCF7 [5]) [%] | inhibition (INH) (Rattus norvegicus) [%] | fraction unbound [6]
O=C(O)/C=C/c1ccc(/C(=C(\c2ccc(C(F)(F)F)cc2Cl)C2CCC2)c2ccc3[nH]nc(F)c3c2)cc1 | – | 3 | 8.2 | 94 | – | – | –
CC(C)/C(=C(/c1ccc(/C=C/C(=O)O)cc1)c1ccc2[nH]ncc2c1)c1ccccc1 | – | 4.3 | 4 | 91 | – | – | –
N#Cc1cc(Cl)ccc1/C(=C(\c1ccc(/C=C/C(=O)O)cc1)c1ccc2[nH]nc(F)c2c1)C1CCC1 | 3700 | 0.3 | 0.7 | 94 | – | 87 | 0.007
CCC/C(=C(/c1ccc(/C=C/C(=O)O)cc1)c1ccc2[nH]ncc2c1)c1ccccc1 | – | 4.6 | 11 | 92 | – | – | –
O=C(O)/C=C/c1ccc(/C(=C(\c2ccccc2)C(F)(F)F)c2ccc3[nH]ncc3c2)cc1 | – | 3.1 | 5.5 | 92 | – | – | –
O=C(O)/C=C/c1ccc(/C(=C(/CCF)c2ccccc2)c2ccc3[nH]ncc3c2)cc1 | – | 1.4 | 2.1 | 91 | – | – | –
COc1ccc(/C(=C(\c2ccc(/C=C/C(=O)O)cc2)c2ccc3[nH]nc(F)c3c2)C2CCC2)c(C#N)c1 | 2000 | 0.3 | 0.5 | 94 | – | 82 | 0.004
CC/C(=C(/c1ccc(/C=C/C(=O)O)cc1)c1ccc2[nH]nc(Cl)c2c1)c1ccccc1 | – | 102 | 284 | – | 89 | – | –
O=C(O)/C=C/c1ccc(/C(=C(\c2ncccc2C(F)(F)F)C2CCC2)c2ccc3[nH]nc(F)c3c2)cc1 | 690 | 0.3 | 1.1 | 89 | – | – | 0.048
CC/C(=C(/c1ccc(/C=C/C(=O)O)cc1)c1cc2cn[nH]c2cc1Cl)c1ccccc1 | – | 54 | 137 | – | 87 | – | –
CC/C(=C(/c1ccc(/C=C/C(=O)O)cc1)c1cc2cn[nH]c2cc1C)c1ccccc1 | – | 272 | 468 | – | 84 | – | –
N#Cc1cnccc1/C(=C(\c1ccc(/C=C/C(=O)O)cc1)c1ccc2[nH]nc(F)c2c1)C1CCC1 | 70 | 1.1 | 3.8 | 92 | – | 22 | 0.1
O=C(O)/C=C/c1ccc(/C(=C(\c2ccccc2)C2CCC2)c2ccc3[nH]nc(F)c3c2)cc1 | 14600 | 0.4 | 1.4 | 90 | – | 81 | 0.003
CC/C(=C(/c1ccc(/C=C/C(=O)O)cc1)c1cc2cn[nH]c2cn1)c1ccccc1 | – | 384 | 442 | – | 88 | – | –
CC/C(=C(/c1ccc(/C=C/C(=O)O)cc1)c1ccc2[nH]ncc2c1)c1ccc(F)cc1Cl [BRILANESTRANT] | – | – | 2.5 | 90 | – | 79 | 0.011
C[C@]12CC[C@@H]3c4ccc(O)cc4C[C@@H](CCCCCCCCC[S+]([O-])CCCC(F)(F)C(F)(F)F)[C@H]3[C@@H]1CC[C@@H]2O (some centres not stated) [FULVESTRANT] | – | 0.4 | 0.6 | 100 | – | – | –
CC/C(=C(/c1ccc(/C=C/C(=O)O)cc1)c1ccc2[nH]ncc2c1Cl)c1ccccc1 | 18000 | 0.8 | 1.6 | 93 | – | – | –
